The nature of data set [1]: L929 cytotoxicity evaluation (resazurin). To be noted: mouse, L929 mouse fibroblast cells; 72 hrs incubation; read-out: Cytotox L-929 IC50. In kind it is cell-based. Here is the method: For evaluation of compound effects on mammalian cells, L929 mouse fibroblast cells were used. Cells were maintained as adherent cultures in T-25 vented cap flasks in a humidified incubator at 37° C. in the presence of 5% CO2. Culture media was D-MEM supplemented with 10% fetal bovine serum and 1% penicillin/streptomycin. L929 cells were maintained below confluent levels by sub-culturing at 1:10 dilution twice weekly using 0.05% trypsin for detachment.
Sub-confluent L929 cells were trypsinized, resuspended in fresh media and 10 uL was counted using hemocytometer to determine cell concentration. Cells were diluted to 1×10^4/mL in DMEM, dispensed (100 uL) into 96-well plates using a Multidrop 384 dispenser and allowed to attach overnight. Spent media was replaced with 99.5 uL fresh D-MEM and compounds to be tested were serially diluted in DMSO and 0.5 uL added using a Biomek NX liquid handler. Plates were incubated with compounds for 72 hrs at 37° C. with 5% CO2. Resazurin (20 uL of 12.5 mg/ml stock) from Sigma-Aldrich was added to each well and plates were incubated for an additional 3-4 hrs. Assay plates were read using an EnVision plate reader at an excitation wavelength of 544 nm and emission of 590 nm. Single data points were used to generate sigmoidal dose response curves and determine IC50 values using XLfit curve fitting software from IDBS (Guildford, UK).

Data set [2] relates to bloodstream-form trypanosome T. brucei brucei 427 strain. As to the kind of experiment: Trypanosoma brucei brucei high-throughput in vitro drug sensitivity assay (resazurin). To be noted: for IC50: Trypanosoma brucei, 72 hrs incubation. In kind it is cell-based.

Where two headings read alike, the source gives them in different places.

In the case of `Cc1ccccc1C(=O)Nc1ccc2c(c1)B(O)OC2(C)C` [compound 27, N-(1-Hydroxy-3,3-dimethyl-1,3-dihydro-benzo[c][1,2]oxaborol-6-yl)-2-methylbenzamide], the IC50 at 72 h in data set [1] is greater than 10 µg/mL. In addition, in data set [2] (read-out: T.b. brucei IC50), the 50% inhibitory concentration (IC50) worked out at 2.24 µg/mL.

Regarding `Cc1cccc(C(=O)Nc2ccc3c(c2)B(O)OC3(C)C)c1` [compound 28, N-(1-Hydroxy-3,3-dimethyl-1,3-dihydro-benzo[c][1,2]oxaborol-6-yl)-3-methyl-benzamide], in data set [1], the IC50 at 72 h was greater than 10 µg/mL. Also, the IC50 in data set [2] (read-out: T.b. brucei IC50) worked out at 3.17 µg/mL.

Turning to `Cc1ccc(C(=O)Nc2ccc3c(c2)B(O)OC3(C)C)cc1` [compound 29, N-(1-Hydroxy-3,3-dimethyl-1,3-dihydro-benzo[c][1,2]oxaborol-6-yl)-4-methyl-benzamide], in data set [1], the 50% inhibitory concentration (IC50) at 72 h was greater than 10 µg/mL. Moreover, in data set [2] (read-out: T.b. brucei IC50), the half-maximal inhibitory concentration (IC50) came to 3.62 µg/mL.

`CCc1ccc(C(=O)Nc2ccc3c(c2)B(O)OC3(C)C)cc1` [compound 30, 4-Ethyl-N-(1-hydroxy-3,3-dimethyl-1,3-dihydro-benzo[c][1,2]oxaborol-6-yl)-benzamide]: in data set [1], the half-inhibitory concentration (IC50) at 72 h was greater than 10 µg/mL. Also, the IC50 in data set [2] (read-out: T.b. brucei IC50) came to 0.427 µg/mL.

With `CCCc1ccc(C(=O)Nc2ccc3c(c2)B(O)OC3(C)C)cc1` [compound 31, N-(1-Hydroxy-3,3-dimethyl-1,3-dihydro-benzo[c][1,2]oxaborol-6-yl)-4-propyl-benzamide], the half-maximal inhibitory concentration (IC50) at 72 h in data set [1] is greater than 10 µg/mL. In addition, the IC50 in data set [2] (read-out: T.b. brucei IC50) was 0.397 µg/mL.

As for `CCCCc1ccc(C(=O)Nc2ccc3c(c2)B(O)OC3(C)C)cc1` [compound 32, 4-Butyl-N-(1-hydroxy-3,3-dimethyl-1,3-dihydro-benzo[c][1,2]oxaborol-6-yl)-benzamide], the IC50 at 72 h in data set [1] is greater than 10 µg/mL. Besides, in data set [2] (read-out: T.b. brucei IC50), the IC50 is 0.349 µg/mL.

With `CC1(C)OB(O)c2cc(NC(=O)c3cccc(C(F)(F)F)c3)ccc21` [compound 35, N-(1-Hydroxy-3,3-dimethyl-1,3-dihydro-benzo[c][1,2]oxaborol-6-yl)-3-trifluoromethyl-benzamide], in data set [1], the concentration for half-maximal inhibition (IC50) at 72 h is greater than 10 µg/mL. Further, the IC50 in data set [2] (read-out: T.b. brucei IC50) is 2.74 µg/mL.

In the case of `CC1(C)OB(O)c2cc(NC(=O)c3ccc(C(F)(F)F)cc3)ccc21` [compound 36, N-(1-Hydroxy-3,3-dimethyl-1,3-dihydro-benzo[c][1,2]oxaborol-6-yl)-4-trifluoromethyl-benzamide], the IC50 at 72 h in data set [1] was greater than 10 µg/mL. Besides, the concentration for half-maximal inhibition (IC50) in data set [2] (read-out: T.b. brucei IC50) is 4.05 µg/mL.

Regarding `CC1(C)OB(O)c2cc(NC(=O)c3ccccc3F)ccc21` [compound 37, 2-Fluoro-N-(1-hydroxy-3,3-dimethyl-1,3-dihydro-benzo[c][1,2]oxaborol-6-yl)-benzamide], in data set [1], the IC50 at 72 h was greater than 10 µg/mL. The IC50 in data set [2] (read-out: T.b. brucei IC50) came to 1.42 µg/mL.

For the compound `CC1(C)OB(O)c2cc(NC(=O)c3ccccc3I)ccc21` [compound 40, N-(1-Hydroxy-3,3-dimethyl-1,3-dihydro-benzo[c][1,2]oxaborol-6-yl)-2-iodo-benzamide], the half-inhibitory concentration (IC50) at 72 h in data set [1] was greater than 10 µg/mL. In data set [2] (read-out: T.b. brucei IC50), the IC50 amounted to 0.599 µg/mL.

As to `CC1(C)OB(O)c2cc(NC(=O)c3cccc(F)c3)ccc21` [compound 41, 3-Fluoro-N-(1-hydroxy-3,3-dimethyl-1,3-dihydro-benzo[c][1,2]oxaborol-6-yl)-benzamide], the IC50 at 72 h in data set [1] is greater than 10 µg/mL. The IC50 in data set [2] (read-out: T.b. brucei IC50) was greater than 5 µg/mL.

As for `CC1(C)OB(O)c2cc(NC(=O)c3cccc(Cl)c3)ccc21` [compound 42, 3-Chloro-N-(1-hydroxy-3,3-dimethyl-1,3-dihydro-benzo[c][1,2]oxaborol-6-yl)-benzamide], in data set [1], the IC50 at 72 h was greater than 10 µg/mL. Moreover, the IC50 in data set [2] (read-out: T.b. brucei IC50) worked out at 2.12 µg/mL.

For the compound `CC1(C)OB(O)c2cc(NC(=O)c3cccc(Br)c3)ccc21` [compound 43, 3-Bromo-N-(1-hydroxy-3,3-dimethyl-1,3-dihydro-benzo[c][1,2]oxaborol-6-yl)-benzamide], the IC50 at 72 h in data set [1] is greater than 10 µg/mL. Besides, the IC50 in data set [2] (read-out: T.b. brucei IC50) came out at 2.2 µg/mL.

Regarding `CC1(C)OB(O)c2cc(NC(=O)c3ccc(Cl)cc3)ccc21` [compound 45, 4-Chloro-N-(1-hydroxy-3,3-dimethyl-1,3-dihydro-benzo[c][1,2]oxaborol-6-yl)-benzamide], the half-inhibitory concentration (IC50) at 72 h in data set [1] is greater than 10 µg/mL. Besides, the IC50 in data set [2] (read-out: T.b. brucei IC50) turned out to be 3.64 µg/mL.

Take `COc1ccccc1C(=O)Nc1ccc2c(c1)B(O)OC2(C)C` [compound 46, N-(1-Hydroxy-3,3-dimethyl-1,3-dihydro-benzo[c][1,2]oxaborol-6-yl)-2-methoxy-benzamide]: the IC50 at 72 h in data set [1] is greater than 10 µg/mL. Moreover, in data set [2] (read-out: T.b. brucei IC50), the IC50 came out at 3.01 µg/mL.

For the compound `COc1cccc(C(=O)Nc2ccc3c(c2)B(O)OC3(C)C)c1` [compound 47, N-(1-Hydroxy-3,3-dimethyl-1,3-dihydro-benzo[c][1,2]oxaborol-6-yl)-3-methoxy-benzamide], the IC50 at 72 h in data set [1] is greater than 10 µg/mL. In data set [2] (read-out: T.b. brucei IC50), the concentration for half-maximal inhibition (IC50) worked out at 2.35 µg/mL.

For `COc1ccc(C(=O)Nc2ccc3c(c2)B(O)OC3(C)C)cc1` [compound 48, N-(1-Hydroxy-3,3-dimethyl-1,3-dihydro-benzo[c][1,2]oxaborol-6-yl)-4-methoxy-benzamide], the half-maximal inhibitory concentration (IC50) at 72 h in data set [1] was greater than 10 µg/mL. Also, the “Selectivity Index (L929 IC50 / T. b. brucei IC50)” value in data set [2] (T. b. brucei vs L929) is on record as greater than 9. The IC50 in data set [2] (read-out: T. b. brucei IC50) stood at 3.57 µM; in data set [2] (read-out: T.b. brucei IC50) it was 1.11 µg/mL.

For the compound `CCOc1ccccc1C(=O)Nc1ccc2c(c1)B(O)OC2(C)C` [compound 49, 2-Ethoxy-N-(1-hydroxy-3,3-dimethyl-1,3-dihydro-benzo[c][1,2]oxaborol-6-yl)-benzamide], in data set [1], the IC50 at 72 h was greater than 10 µg/mL. In addition, in data set [2] (read-out: T.b. brucei IC50), the IC50 was greater than 5 µg/mL.

With `CCCCCOc1ccc(C(=O)Nc2ccc3c(c2)B(O)OC3(C)C)cc1` [compound 50, N-(1-Hydroxy-3,3-dimethyl-1,3-dihydro-benzo[c][1,2]oxaborol-6-yl)-4-pentyloxy-benzamide], the concentration for half-maximal inhibition (IC50) at 72 h in data set [1] is greater than 10 µg/mL. In addition, the IC50 in data set [2] (read-out: T.b. brucei IC50) stood at 1.4 µg/mL.

On to `CC1(C)OB(O)c2cc(NC(=O)c3ccccc3OC(F)(F)F)ccc21` [compound 51, N-(1-Hydroxy-3,3-dimethyl-1,3-dihydro-benzo[c][1,2]oxaborol-6-yl)-2-trifluoromethoxy-benzamide], for which the 50% inhibitory concentration (IC50) at 72 h in data set [1] is greater than 10 µg/mL. Besides, the IC50 in data set [2] (read-out: T.b. brucei IC50) was 1.15 µg/mL.

As to `CC1(C)OB(O)c2cc(NC(=O)c3cccc(OC(F)(F)F)c3)ccc21` [compound 52, N-(1-Hydroxy-3,3-dimethyl-1,3-dihydro-benzo[c][1,2]oxaborol-6-yl)-3-trifluoromethoxy-benzamide], in data set [1], the IC50 at 72 h was greater than 10 µg/mL. For the same compound, the IC50 in data set [2] (read-out: T.b. brucei IC50) came out at 2.27 µg/mL.

`CC1(C)OB(O)c2cc(NC(=O)c3ccc(OC(F)(F)F)cc3)ccc21` [compound 53, N-(1-Hydroxy-3,3-dimethyl-1,3-dihydro-benzo[c][1,2]oxaborol-6-yl)-4-trifluoromethoxy-benzamide]: the IC50 at 72 h in data set [1] is greater than 10 µg/mL. The 50% inhibitory concentration (IC50) in data set [2] (read-out: T.b. brucei IC50) was determined as 0.407 µg/mL.

In the case of `CC1(C)OB(O)c2cc(NC(=O)c3ccc(SC(F)(F)F)cc3)ccc21` [compound 54, N-(1-Hydroxy-3,3-dimethyl-1,3-dihydro-benzo[c][1,2]oxaborol-6-yl)-4-trifluoromethylsulfanyl-benzamide], the 50% inhibitory concentration (IC50) at 72 h in data set [1] was greater than 10 µg/mL. For the same compound, the IC50 in data set [2] (read-out: T.b. brucei IC50) was determined as 0.571 µg/mL.

With `CC1(C)OB(O)c2cc(NC(=O)c3ccccc3[N+](=O)[O-])ccc21` [compound 55, N-(1-Hydroxy-3,3-dimethyl-1,3-dihydro-benzo[c][1,2]oxaborol-6-yl)-2-nitro-benzamide], in data set [1], the IC50 at 72 h is greater than 10 µg/mL. The half-maximal inhibitory concentration (IC50) in data set [2] (read-out: T.b. brucei IC50) was 0.122 µg/mL.

`CC1(C)OB(O)c2cc(NC(=O)c3ccc([N+](=O)[O-])cc3)ccc21` [compound 56, N-(1-Hydroxy-3,3-dimethyl-1,3-dihydro-benzo[c][1,2]oxaborol-6-yl)-4-nitro-benzamide]: the concentration for half-maximal inhibition (IC50) at 72 h in data set [1] was greater than 10 µg/mL. Moreover, in data set [2] (read-out: T.b. brucei IC50), the half-maximal inhibitory concentration (IC50) is greater than 5 µg/mL.

As to `CC1(C)OB(O)c2cc(NC(=O)c3ccc(C#N)cc3)ccc21` [compound 57, 4-Cyano-N-(1-hydroxy-3,3-dimethyl-1,3-dihydro-benzo[c][1,2]oxaborol-6-yl)-benzamide], the IC50 at 72 h in data set [1] was greater than 10 µg/mL. Further, the IC50 in data set [2] (read-out: T.b. brucei IC50) is greater than 5 µg/mL.

For the compound `COC(=O)c1ccc(C(=O)Nc2ccc3c(c2)B(O)OC3(C)C)cc1` [compound 58, N-(1-Hydroxy-3,3-dimethyl-1,3-dihydro-benzo[c][1,2]oxaborol-6-yl)-terephthalamic acid methyl ester], in data set [1], the IC50 at 72 h is greater than 10 µg/mL. Besides, the IC50 in data set [2] (read-out: T.b. brucei IC50) is 1.11 µg/mL.

For `CC(=O)Nc1ccc(C(=O)Nc2ccc3c(c2)B(O)OC3(C)C)cc1` [compound 59, 4-Acetylamino-N-(1-hydroxy-3,3-dimethyl-1,3-dihydro-benzo[c][1,2]oxaborol-6-yl)-benzamide], the half-inhibitory concentration (IC50) at 72 h in data set [1] is greater than 10 µg/mL. Further, the IC50 in data set [2] (read-out: T.b. brucei IC50) was determined as 1.61 µg/mL.

Regarding `CC1(C)OB(O)c2cc(NC(=O)c3ccc(-c4cccs4)cc3)ccc21` [compound 60, N-(1-Hydroxy-3,3-dimethyl-1,3-dihydro-benzo[c][1,2]oxaborol-6-yl)-4-thiophen-2-yl-benzamide], in data set [1], the IC50 at 72 h is greater than 10 µg/mL. In data set [2] (read-out: T.b. brucei IC50), the half-inhibitory concentration (IC50) was determined as 0.205 µg/mL.

As for `CC1(C)OB(O)c2cc(NC(=O)c3ccc(N4CCOCC4)cc3)ccc21` [compound 61, N-(1-Hydroxy-3,3-dimethyl-1,3-dihydro-benzo[c][1,2]oxaborol-6-yl)-4-morpholin-4-yl-benzamide], the IC50 at 72 h in data set [1] is greater than 10 µg/mL. The half-maximal inhibitory concentration (IC50) in data set [2] (read-out: T.b. brucei IC50) turned out to be 1.6 µg/mL.

What is called IC50 is the midpoint of a concentration-inhibition curve.
